# Reference: patent US10233173B2, “Substituted 1,2,3-triazoles as NR2B-selective NMDA modulators” (JANSSEN PHARMACEUTICA NV, priority 2016, dated 2019)
# Biological target: human GluN1/GluN2B NMDA receptors (Homo sapiens, UniProt Q05586+Q13224)
# Assay: Cell-based calcium flux (FLIPR) assay on cloned human NR1/NR2B ion channels expressed in mammalian cells
# Conditions: standard assay; human GluN1/GluN2B, calcium flux (FLIPR), glutamate ~EC80
# In short: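 Calcium influx followed by FLIPR fluorescence after 5 min compound exposure and a further 5 min co-agonist challenge: 10 μM glycine with glutamate at ~EC80 (standard) or EC40 (HTS).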
# Chain of human GluN1/GluN2B NMDA receptors (Q13224 27-1484, other chains not shown): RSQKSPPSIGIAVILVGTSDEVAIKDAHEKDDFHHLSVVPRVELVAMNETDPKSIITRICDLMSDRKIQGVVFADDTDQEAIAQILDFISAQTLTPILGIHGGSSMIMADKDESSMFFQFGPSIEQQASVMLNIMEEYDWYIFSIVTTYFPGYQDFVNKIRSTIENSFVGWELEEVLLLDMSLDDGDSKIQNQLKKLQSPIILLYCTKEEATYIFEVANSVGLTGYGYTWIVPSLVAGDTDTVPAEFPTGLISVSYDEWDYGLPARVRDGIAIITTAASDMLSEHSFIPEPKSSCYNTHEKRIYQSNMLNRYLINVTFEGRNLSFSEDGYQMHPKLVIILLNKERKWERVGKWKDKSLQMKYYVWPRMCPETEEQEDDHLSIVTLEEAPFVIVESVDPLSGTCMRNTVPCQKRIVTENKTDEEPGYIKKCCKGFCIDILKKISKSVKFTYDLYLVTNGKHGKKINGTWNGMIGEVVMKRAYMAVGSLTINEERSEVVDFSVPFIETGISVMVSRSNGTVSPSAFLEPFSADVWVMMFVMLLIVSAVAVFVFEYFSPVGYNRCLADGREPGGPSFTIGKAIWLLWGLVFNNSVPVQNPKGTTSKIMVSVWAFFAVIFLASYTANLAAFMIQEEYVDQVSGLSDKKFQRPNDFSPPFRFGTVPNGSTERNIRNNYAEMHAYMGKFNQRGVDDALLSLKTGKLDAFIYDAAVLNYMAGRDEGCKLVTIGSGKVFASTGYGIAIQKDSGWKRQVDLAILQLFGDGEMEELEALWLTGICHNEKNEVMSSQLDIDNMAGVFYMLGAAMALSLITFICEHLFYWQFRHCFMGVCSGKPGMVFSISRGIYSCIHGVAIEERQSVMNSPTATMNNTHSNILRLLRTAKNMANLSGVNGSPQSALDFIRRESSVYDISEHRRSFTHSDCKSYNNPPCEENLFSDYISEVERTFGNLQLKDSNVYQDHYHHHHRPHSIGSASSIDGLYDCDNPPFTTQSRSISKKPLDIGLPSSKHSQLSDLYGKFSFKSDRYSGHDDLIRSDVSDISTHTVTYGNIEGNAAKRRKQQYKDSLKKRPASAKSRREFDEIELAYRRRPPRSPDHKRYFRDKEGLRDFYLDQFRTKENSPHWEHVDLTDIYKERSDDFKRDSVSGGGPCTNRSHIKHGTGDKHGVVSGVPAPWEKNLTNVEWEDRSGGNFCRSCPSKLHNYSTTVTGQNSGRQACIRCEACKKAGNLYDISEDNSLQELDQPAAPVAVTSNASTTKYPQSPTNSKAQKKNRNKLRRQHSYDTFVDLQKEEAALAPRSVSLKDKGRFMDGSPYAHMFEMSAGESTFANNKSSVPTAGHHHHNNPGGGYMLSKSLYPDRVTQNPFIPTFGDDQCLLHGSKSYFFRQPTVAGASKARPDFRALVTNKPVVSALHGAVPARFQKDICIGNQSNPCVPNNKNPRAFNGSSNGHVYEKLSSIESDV
row,SMILES,IC50 [µM]
1,"Cc1cnc(OCc2cn(-c3cccc(C(C)(F)F)c3)nn2)nc1N [Example 314, 2-[[1-[3-(1,1-Difluoroethyl)phenyl]triazol-4-yl]methoxy]-5-methyl-pyrimidin-4-amine]",0.006
2,"CNc1nc(OCc2cn(-c3cccc(C(C)(F)F)c3)nn2)ncc1F [Example 315, 2-[[1-[3-(1,1-Difluoroethyl)phenyl]triazol-4-yl]methoxy]-5-fluoro-N-methyl-pyrimidin-4-amine]",0.158
3,"CC(F)(F)c1cccc(-n2cc(COc3nccc(N)n3)nn2)c1 [Example 316, 2-[[1-[3-(1,1-Difluoroethyl)phenyl]triazol-4-yl]methoxy]pyrimidin-4-amine]",0.183
4,"CNc1ccnc(OCc2cn(-c3cccc(C(C)(F)F)c3)nn2)n1 [Example 317, 2-[[1-[3-(1,1-Difluoroethyl)phenyl]triazol-4-yl]methoxy]-N-methyl-pyrimidin-4-amine]",0.026
5,"CN(C)c1ccnc(OCc2cn(-c3cccc(C(C)(F)F)c3)nn2)n1 [Example 318, 2-[[1-[3-(1,1-Difluoroethyl)phenyl]triazol-4-yl]methoxy]-N,N-dimethyl-pyrimidin-4-amine]",0.026
6,"CC(F)(F)c1cccc(-n2cc(COc3ncc(C4CC4)cn3)nn2)c1 [Example 319, 5-Cyclopropyl-2-[[1-[3-(1,1-difluoroethyl)phenyl]triazol-4-yl]methoxy]pyrimidine]",0.015
7,"CC(F)(F)c1cccc(-n2cc(COc3ncc(N4CCC4)cn3)nn2)c1 [Example 320, 5-(Azetidin-1-yl)-2-[[1-[3-(1,1-difluoroethyl)phenyl]triazol-4-yl]methoxy]pyrimidine]",0.061
8,"CC(F)(F)c1cccc(-n2cc(COc3ncc(N4CC(F)C4)cn3)nn2)c1 [Example 321, 2-[[1-[3-(1,1-Difluoroethyl)phenyl]triazol-4-yl]methoxy]-5-(3-fluoroazetidin-1-yl)pyrimidine]",0.104
9,"CC(F)(F)c1cccc(-n2cc(COc3nccc(N4CCCC4)n3)nn2)c1 [Example 322, 2-[[1-[3-(1,1-Difluoroethyl)phenyl]triazol-4-yl]methoxy]-4-pyrrolidin-1-yl-pyrimidine]",0.011
10,"FC(F)Oc1cccc(-n2cc(COc3ncccn3)nn2)c1 [Example 323, 2-[[1-[3-(Difluoromethoxy)phenyl]triazol-4-yl]methoxy]pyrimidine]",0.788
11,"Fc1cnc(OCc2cn(-c3cccc(OC(F)F)c3)nn2)nc1 [Example 324, 2-[[1-[3-(Difluoromethoxy)phenyl]triazol-4-yl]methoxy]-5-fluoro-pyrimidine]",0.494
12,"COc1cnc(OCc2cn(-c3cccc(OC(F)F)c3)nn2)nc1 [Example 325, 2-[[1-[3-(Difluoromethoxy)phenyl]triazol-4-yl]methoxy]-5-methoxy-pyrimidine]",0.027
13,"FC(F)Oc1cccc(-n2cc(COc3ncc(Cl)cn3)nn2)c1 [Example 326, 5-Chloro-2-[[1-[3-(difluoromethoxy)phenyl]triazol-4-yl]methoxy]pyrimidine]",0.069
14,"Cc1cnc(OCc2cn(-c3cccc(OC(F)F)c3)nn2)nc1 [Example 327, 2-[[1-[3-(Difluoromethoxy)phenyl]triazol-4-yl]methoxy]-5-methyl-pyrimidine]",0.015
15,"CCc1cnc(OCc2cn(-c3cccc(OC(F)F)c3)nn2)nc1 [Example 328, 2-[[1-[3-(Difluoromethoxy)phenyl]triazol-4-yl]methoxy]-5-ethyl-pyrimidine]",0.029
16,"FC(F)Oc1ccc(-n2cc(COc3ncccn3)nn2)cc1 [Example 329, 2-[[1-[4-(Difluoromethoxy)phenyl]triazol-4-yl]methoxy]pyrimidine]",0.854
17,"Fc1cnc(OCc2cn(-c3ccc(OC(F)F)cc3)nn2)nc1 [Example 330, 2-[[1-[4-(Difluoromethoxy)phenyl]triazol-4-yl]methoxy]-5-fluoro-pyrimidine]",0.752
18,"COc1cnc(OCc2cn(-c3ccc(OC(F)F)cc3)nn2)nc1 [Example 331, 2-[[1-[4-(Difluoromethoxy)phenyl]triazol-4-yl]methoxy]-5-methoxy-pyrimidine]",0.098
19,"FC(F)Oc1ccc(-n2cc(COc3ncc(Cl)cn3)nn2)cc1 [Example 332, 5-Chloro-2-[[1-[4-(difluoromethoxy)phenyl]triazol-4-yl]methoxy]pyrimidine]",0.2
20,"Cc1cnc(OCc2cn(-c3ccc(OC(F)F)cc3)nn2)nc1 [Example 333, 2-[[1-[4-(Difluoromethoxy)phenyl]triazol-4-yl]methoxy]-5-methyl-pyrimidine]",0.087
21,"CCc1cnc(OCc2cn(-c3ccc(OC(F)F)cc3)nn2)nc1 [Example 334, 2-[[1-[4-(Difluoromethoxy)phenyl]triazol-4-yl]methoxy]-5-ethyl-pyrimidine]",0.051
22,"FC(F)(F)Oc1ccc(-n2cc(COc3ncccn3)nn2)cc1 [Example 335, 2-[[1-[4-(Trifluoromethoxy)phenyl]triazol-4-yl]methoxy]pyrimidine]",3.12

row,SMILES,IC50 [µM]
1,"COc1cnc(OCc2cn(-c3ccc(OC(F)(F)F)cc3)nn2)nc1 [Example 337, 5-Methoxy-2-[[1-[4-(trifluoromethoxy)phenyl]triazol-4-yl]methoxy]pyrimidine]",> 10
2,"FC(F)(F)Oc1ccc(-n2cc(COc3ncc(Cl)cn3)nn2)cc1 [Example 338, 5-Chloro-2-[[1-[4-(trifluoromethoxy)phenyl]triazol-4-yl]methoxy]pyrimidine]",9.05
3,"Cc1cnc(OCc2cn(-c3ccc(OC(F)(F)F)cc3)nn2)nc1 [Example 339, 5-Methyl-2-[[1-[4-(trifluoromethoxy)phenyl]triazol-4-yl]methoxy]pyrimidine]",1.13
4,"CCc1cnc(OCc2cn(-c3ccc(OC(F)(F)F)cc3)nn2)nc1 [Example 340, 5-Ethyl-2-[[1-[4-(trifluoromethoxy)phenyl]triazol-4-yl]methoxy]pyrimidine]",0.794
5,"FC(F)(F)Oc1cccc(-n2cc(COc3ncccn3)nn2)c1 [Example 341, 2-[[1-[3-(Trifluoromethoxy)phenyl]triazol-4-yl]methoxy]pyrimidine]",0.538
6,"Cc1cnc(OCc2cn(-c3cccc(OC(F)(F)F)c3)nn2)nc1 [Example 342, 5-Methyl-2-[[1-[3-(trifluoromethoxy)phenyl]triazol-4-yl]methoxy]pyrimidine]",0.017
7,"Cc1cnc(OCc2cn(-c3cccc(OC(F)(F)F)c3)nn2)nc1N [Example 343, 5-Methyl-2-[[1-[3-(trifluoromethoxy)phenyl]triazol-4-yl]methoxy]pyrimidin-4-amine]",0.04
8,"CC(=O)c1cnc(OCc2cn(-c3cccc(OC(F)(F)F)c3)nn2)nc1 [Example 344, 1-[2-[[1-[3-(Trifluoromethoxy)phenyl]triazol-4-yl]methoxy]pyrimidin-5-yl]ethanone]",0.062
9,"CC(C)(O)c1cnc(OCc2cn(-c3cccc(OC(F)(F)F)c3)nn2)nc1 [Example 345, 2-[2-[[1-[3-(Trifluoromethoxy)phenyl]triazol-4-yl]methoxy]pyrimidin-5-yl]propan-2-ol]",0.284
10,"COCc1ccnc(OCc2cn(-c3cccc(OC(F)(F)F)c3)nn2)n1 [Example 346, 4-(Methoxymethyl)-2-[[1-[3-(trifluoromethoxy)phenyl]triazol-4-yl]methoxy]pyrimidine]",0.202
11,"Cc1ccnc(OCc2cn(-c3cccc(OC(F)(F)F)c3)nn2)n1 [Example 347, 4-Methyl-2-[[1-[3-(trifluoromethoxy)phenyl]triazol-4-yl]methoxy]pyrimidine]",0.137
12,"Fc1cnc(OCc2cn(-c3cccc(OC(F)(F)F)c3)nn2)nc1 [Example 348, 5-Fluoro-2-[[1-[3-(trifluoromethoxy)phenyl]triazol-4-yl]methoxy]pyrimidine]",0.447
13,"COc1cnc(OCc2cn(-c3cccc(OC(F)(F)F)c3)nn2)nc1 [Example 349, 5-Methoxy-2-[[1-[3-(trifluoromethoxy)phenyl]triazol-4-yl]methoxy]pyrimidine]",0.013
14,"FC(F)(F)Oc1cccc(-n2cc(COc3ncc(Cl)cn3)nn2)c1 [Example 350, 5-Chloro-2-[[1-[3-(trifluoromethoxy)phenyl]triazol-4-yl]methoxy]pyrimidine]",0.05
15,"CCc1cnc(OCc2cn(-c3cccc(OC(F)(F)F)c3)nn2)nc1 [Example 351, 5-Ethyl-2-[[1-[3-(trifluoromethoxy)phenyl]triazol-4-yl]methoxy]pyrimidine]",0.015
16,"CNc1ccnc(OCc2cn(-c3cccc(OC(F)(F)F)c3)nn2)n1 [Example 352, N-Methyl-2-[[1-[3-(trifluoromethoxy)phenyl]triazol-4-yl]methoxy]pyrimidin-4-amine]",0.068
17,"Nc1ccnc(OCc2cn(-c3cccc(OC(F)(F)F)c3)nn2)n1 [Example 353, 2-[[1-[3-(Trifluoromethoxy)phenyl]triazol-4-yl]methoxy]pyrimidin-4-amine]",0.525
18,"Cc1cnc(OCc2cn(-c3ccc4c(c3)OC(F)(F)O4)nn2)nc1 [Example 354, 2-[[1-(2,2-Difluoro-1,3-benzodioxol-5-yl)triazol-4-yl]methoxy]-5-methyl-pyrimidine]",0.073
19,"FC1(F)Oc2ccc(-n3cc(COc4ncccn4)nn3)cc2O1 [Example 355, 2-[[1-(2,2-Difluoro-1,3-benzodioxol-5-yl)triazol-4-yl]methoxy]pyrimidine]",0.238
20,"FC1(F)Oc2ccc(-n3cc(COc4ncc(Cl)cn4)nn3)cc2O1 [Example 356, 5-Chloro-2-[[1-(2,2-difluoro-1,3-benzodioxol-5-yl)triazol-4-yl]methoxy]pyrimidine]",0.185
21,"Cc1nc(OCc2cn(-c3ccc4c(c3)OC(F)(F)O4)nn2)ncc1F [Example 357, 2-[[1-(2,2-Difluoro-1,3-benzodioxol-5-yl)triazol-4-yl]methoxy]-5-fluoro-4-methyl-pyrimidine]",0.35
22,"Fc1cnc(OCc2cn(-c3ccc4c(c3)OC(F)(F)O4)nn2)nc1 [Example 358, 2-[[1-(2,2-Difluoro-1,3-benzodioxol-5-yl)triazol-4-yl]methoxy]-5-fluoro-pyrimidine]",0.726
